SMILES strings stand for the structures. Converted amounts (≈) assume the structure as drawn.

For assay [1], the system named is melanoma B-16. In words: Antitumor therapeutic test in mice (life span prolongation), melanoma B-16 intraperitoneally transplanted, NCI-protocol 1,300. The class given is in vivo, mouse. Conditions: i.p. once daily for 9 consecutive days. How it is done:
Therapeutic tests were carried out in mice according to NCI-protocol 1,300, Cancer Chemother, Reports, Part 3, 1972 , Vol.3, No.2, in which melanoma B-16 tumor cells had been intraperitoneally transplanted, compound (I) being administered intraperitoneally once daily for 9 consecutive days.

For assay [2], the system named is Tetrahymena pyriformis W. The experiment in a line: Antiprotozoal activity, growth inhibition by serial dilution method. It counts as cell-based. As to conditions: 28° C., 44 to 48 hours, pH 7.0, serial dilution method, read-out: Antiprotozoal activity, MIC (minimal inhibitory concentration). How it is done: Antiprotozoal activity of compound (I) was assayed with Tetrahymena pyriformis W as the test organism and a medium composed of 20 g tryptose-peptone (Difco Co.), 1 g yeast extract, 2 g glucose, 1000 ml distilled water, 10 ml 1 M phosphate buffer (pH 7.0) as the assay medium. The microorganism was incubated at 28° C. for 44 to 48 hours and the growth inhibitory activity of compound (I) was assayed by the serial dilution method.

Turning to `COC1C=CC=C(C)Cc2cc(OS(C)(=O)=O)c(Cl)c(c2)N(C)C(=O)CC(OC(=O)C(C)C)C2(C)OC2C(C)C2CC1(O)NC(=O)O2` (stereo not drawn) [PDM-3-C20-methenesulfonate, PDM-3-C20-methanesulfonate], the “Antitumor activities B-16 (T/C %), life span prolongation” value in assay [1] (6.2 μg/kg) worked out at 154%; in assay [1] (12.5 μg/kg), 195%; in assay [1] (25 μg/kg) it was 178%; in assay [1] (50 μg/kg), 189%; in assay [1] (100 μg/kg), 218%; in assay [1] (200 μg/kg) it was 246%.

For the compound `COC1C=CC=C(C)Cc2cc(OS(=O)(=O)c3ccc(N)cc3)c(Cl)c(c2)N(C)C(=O)CC(OC(=O)C(C)C)C2(C)OC2C(C)C2CC1(O)NC(=O)O2` (stereo not drawn) [PDM-3-C20-p-aminobenzenesulfonate], the MIC in assay [2] fell in the range of 2 to 4 µg/mL (≈ 2.58 to 5.15 µM).

As for `COC1C=CC=C(C)Cc2cc(OS(=O)(=O)c3ccc(Cl)cc3)c(Cl)c(c2)N(C)C(=O)CC(OC(=O)C(C)C)C2(C)OC2C(C)C2CC1(O)NC(=O)O2` (stereo not drawn) [PDM-3-C20-p-chlorobenzenesulfonate], the MIC in assay [2] was 2 µg/mL (≈ 2.51 µM).

For `COC1C=CC=C(C)Cc2cc(OS(=O)(=O)c3ccc(C)cc3)c(Cl)c(c2)N(C)C(=O)CC(OC(=O)C(C)C)C2(C)OC2C(C)C2CC1(O)NC(=O)O2` (stereo not drawn) [PDM-3-C20-p-toluenesulfonate], in assay [2], the MIC fell in the range of 1 to 2 µg/mL (≈ 1.29 to 2.58 µM).
